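Test compounds were applied to cells in 96-well plates for 48 hours at 5 doses. Here, GI50 denotes the concentration required for 50% inhibition of growth.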 Active and inactive are the calls of the source. No stated cut-off is given here; in the data, active = GI50 up to about 1.1 µM and inactive = higher.
Assays:
Assay in all cases: growth of human tumour cells (NCI), 48 h
HCT-116 = test system: HCT-116
SNB-19 = test system: SNB-19
A498 = test system: A498
SK-OV-3 = test system: SK-OV-3
SK-MEL-5 = test system: SK-MEL-5
SF-268 = test system: SF-268
NCI-H226 = test system: NCI-H226
SK-MEL-2 = test system: SK-MEL-2
Malme-3M = test system: Malme-3M
UO-31 = test system: UO-31
HCT-15 = test system: HCT-15
MOLT-4 = test system: MOLT-4
NCI-H460 = test system: NCI-H460
ACHN = test system: ACHN
CCRF-CEM = test system: CCRF-CEM
NCI-H23 = test system: NCI-H23
SK-MEL-28 = test system: SK-MEL-28
OVCAR-4 = test system: OVCAR-4

Structure (SMILES): CC1(C)C(=O)N(c2ccccc2)C(=O)N1c1nc2ccccc2[nH]1
- GI50 (HCT-116): 37.4 µM (inactive)
- GI50 (SNB-19): > 100 µM (inactive)
- GI50 (A498): > 100 µM (inactive)
- GI50 (SK-OV-3): > 100 µM (inactive)
- GI50 (SK-MEL-5): > 100 µM (inactive)
- GI50 (SF-268): > 100 µM (inactive)
- GI50 (NCI-H226): > 100 µM (inactive)
- GI50 (SK-MEL-2): > 100 µM (inactive)
- GI50 (Malme-3M): > 100 µM (inactive)
- GI50 (UO-31): > 100 µM (inactive)
- GI50 (HCT-15): 94.2 µM
- GI50 (MOLT-4): 40.9 µM (inactive)
- GI50 (NCI-H460): 71.9 µM (inactive)
- GI50 (ACHN): > 100 µM (inactive)
- GI50 (CCRF-CEM): 21.4 µM (inactive)
- GI50 (NCI-H23): > 100 µM (inactive)
- GI50 (SK-MEL-28): > 100 µM (inactive)

Structure (SMILES): COC(=O)/C=C/c1cc(OC)c(OC)c(OC)c1
- GI50 (HCT-116): > 100 µM (inactive)
- GI50 (SNB-19): > 100 µM (inactive)
- GI50 (SK-OV-3): > 100 µM (inactive)
- GI50 (SK-MEL-5): > 100 µM (inactive)
- GI50 (SF-268): > 100 µM (inactive)
- GI50 (NCI-H226): 46.1 µM (inactive)
- GI50 (SK-MEL-2): > 100 µM (inactive)
- GI50 (Malme-3M): > 100 µM (inactive)
- GI50 (UO-31): 69.3 µM (inactive)
- GI50 (HCT-15): > 100 µM
- GI50 (MOLT-4): > 100 µM (inactive)
- GI50 (OVCAR-4): > 100 µM (inactive)
- GI50 (NCI-H460): > 100 µM (inactive)
- GI50 (ACHN): > 100 µM (inactive)
- GI50 (CCRF-CEM): > 100 µM (inactive)
- GI50 (NCI-H23): > 100 µM (inactive)
- GI50 (SK-MEL-28): > 100 µM (inactive)

Structure (SMILES): CC(=O)CNC(=O)OC(C)(C)C
- GI50 (HCT-116): > 100 µM (inactive)
- GI50 (SNB-19): > 100 µM (inactive)
- GI50 (A498): > 100 µM (inactive)
- GI50 (SK-OV-3): > 100 µM (inactive)
- GI50 (SK-MEL-5): > 100 µM (inactive)
- GI50 (SF-268): > 100 µM (inactive)
- GI50 (NCI-H226): > 100 µM (inactive)
- GI50 (SK-MEL-2): > 100 µM (inactive)
- GI50 (Malme-3M): > 100 µM (inactive)
- GI50 (UO-31): > 100 µM (inactive)
- GI50 (MOLT-4): > 100 µM (inactive)
- GI50 (OVCAR-4): > 100 µM (inactive)
- GI50 (NCI-H460): > 100 µM (inactive)
- GI50 (ACHN): > 100 µM (inactive)
- GI50 (CCRF-CEM): > 100 µM (inactive)
- GI50 (NCI-H23): > 100 µM (inactive)
- GI50 (SK-MEL-28): > 100 µM (inactive)

Structure (SMILES): C1OC1CO[C@@H]1CO[C@H]2[C@@H]1OC[C@H]2OCC1CO1 (some centres not stated)
- GI50 (HCT-116): > 100 µM (inactive)
- GI50 (SNB-19): > 100 µM (inactive)
- GI50 (A498): > 100 µM (inactive)
- GI50 (SK-OV-3): > 100 µM (inactive)
- GI50 (SK-MEL-5): > 100 µM (inactive)
- GI50 (SF-268): > 100 µM (inactive)
- GI50 (NCI-H226): > 100 µM (inactive)
- GI50 (SK-MEL-2): > 100 µM (inactive)
- GI50 (Malme-3M): > 100 µM (inactive)
- GI50 (UO-31): > 100 µM (inactive)
- GI50 (HCT-15): > 100 µM
- GI50 (MOLT-4): 78.2 µM (inactive)
- GI50 (OVCAR-4): > 100 µM (inactive)
- GI50 (NCI-H460): 61.7 µM (inactive)
- GI50 (ACHN): 73.1 µM (inactive)
- GI50 (CCRF-CEM): > 100 µM (inactive)
- GI50 (NCI-H23): > 100 µM (inactive)
- GI50 (SK-MEL-28): > 100 µM (inactive)

Structure (SMILES): O=C(CC(=O)c1cccc2ccccc12)C(=O)NC1C2CC3CC(C2)CC1C3 (configuration not stated)
- GI50 (HCT-116): > 100 µM (inactive)
- GI50 (SNB-19): > 100 µM (inactive)
- GI50 (A498): > 100 µM (inactive)
- GI50 (SK-OV-3): > 100 µM (inactive)
- GI50 (SK-MEL-5): > 100 µM (inactive)
- GI50 (SF-268): > 100 µM (inactive)
- GI50 (NCI-H226): > 100 µM (inactive)
- GI50 (Malme-3M): > 100 µM (inactive)
- GI50 (UO-31): > 100 µM (inactive)
- GI50 (HCT-15): > 100 µM
- GI50 (MOLT-4): > 100 µM (inactive)
- GI50 (OVCAR-4): > 100 µM (inactive)
- GI50 (NCI-H460): > 100 µM (inactive)
- GI50 (ACHN): > 100 µM (inactive)
- GI50 (CCRF-CEM): > 100 µM (inactive)
- GI50 (NCI-H23): > 100 µM (inactive)

Structure (SMILES): O=C(COc1ccc2c(=O)cc(-c3ccc(Cl)cc3)oc2c1)N1CCN(c2ccccc2)CC1
- GI50 (HCT-116): 55.1 µM (inactive)
- GI50 (SNB-19): > 100 µM (inactive)
- GI50 (A498): 5.69 µM (inactive)
- GI50 (SK-OV-3): > 100 µM (inactive)
- GI50 (SK-MEL-5): > 100 µM (inactive)
- GI50 (SF-268): > 100 µM (inactive)
- GI50 (NCI-H226): > 100 µM (inactive)
- GI50 (SK-MEL-2): > 100 µM (inactive)
- GI50 (Malme-3M): > 100 µM (inactive)
- GI50 (UO-31): 1.73 µM (inactive)
- GI50 (HCT-15): > 100 µM
- GI50 (MOLT-4): 6.56 µM (inactive)
- GI50 (OVCAR-4): > 100 µM (inactive)
- GI50 (NCI-H460): > 100 µM (inactive)
- GI50 (ACHN): > 100 µM (inactive)
- GI50 (NCI-H23): > 100 µM (inactive)
- GI50 (SK-MEL-28): > 100 µM (inactive)

Structure (SMILES): C1=CC(N(c2ccccc2)C2C=CCCC2)CCC1 (configuration not stated)
- GI50 (HCT-116): 70.1 µM (inactive)
- GI50 (A498): > 100 µM (inactive)
- GI50 (SK-OV-3): > 100 µM (inactive)
- GI50 (SK-MEL-5): 84.1 µM (inactive)
- GI50 (SF-268): > 100 µM (inactive)
- GI50 (HCT-15): > 100 µM
- GI50 (MOLT-4): > 10 µM (inactive)
- GI50 (NCI-H460): > 100 µM (inactive)
- GI50 (ACHN): > 100 µM (inactive)
- GI50 (CCRF-CEM): > 100 µM (inactive)
- GI50 (NCI-H23): > 100 µM (inactive)
- GI50 (SK-MEL-28): > 100 µM (inactive)

Structure (SMILES): c1ccc(SC23C4C5C6C4C2C6C53)nc1 (configuration not stated)
- GI50 (HCT-116): > 100 µM (inactive)
- GI50 (SNB-19): > 100 µM (inactive)
- GI50 (A498): > 63.7 µM (inactive)
- GI50 (SK-OV-3): > 100 µM (inactive)
- GI50 (SK-MEL-5): > 100 µM (inactive)
- GI50 (SF-268): > 31.6 µM (inactive)
- GI50 (NCI-H226): > 100 µM (inactive)
- GI50 (SK-MEL-2): > 100 µM (inactive)
- GI50 (Malme-3M): > 100 µM (inactive)
- GI50 (UO-31): 35.6 µM (inactive)
- GI50 (HCT-15): > 100 µM
- GI50 (MOLT-4): > 100 µM (inactive)
- GI50 (OVCAR-4): > 100 µM (inactive)
- GI50 (NCI-H460): > 100 µM (inactive)
- GI50 (ACHN): > 100 µM (inactive)
- GI50 (CCRF-CEM): > 100 µM (inactive)
- GI50 (NCI-H23): > 100 µM (inactive)
- GI50 (SK-MEL-28): > 100 µM (inactive)

Source: ChEMBL document CHEMBL1201862, “PubChem BioAssay data set” (2004)
